Test [1] has as its target Serine/threonine-protein kinase WNK1 (Homo sapiens) (UniProt Q9H4A3). Briefly: Inhibition of human WNK1 assessed as residual activity at 1 uM using MBP as substrate by [gamma-33P]-ATP assay relative to control.
The target in test [2] is Myosin-IIIa (Homo sapiens) (UniProt Q8NEV4). Briefly: Inhibition of human MYO3A assessed as residual activity at 1 uM using MBP as substrate by [gamma-33P]-ATP assay relative to control.
In test [3] the target is CDC7/DBF4 (Cell division cycle 7-related protein kinase/Activator of S phase kinase) (Homo sapiens) (UniProt Q9UBU7+O00311). Briefly: Inhibition of human CDC7/DBF4 assessed as residual activity at 1 uM using KTFCGTPEYLAPEVRREPRILSEEEQEMFRDFDYIADWC as substrate by [gamma-33P]-ATP assay relative to control. In kind it is protein-complex assay.
The target in test [4] is Mitogen-activated protein kinase kinase kinase 12 (Homo sapiens) (UniProt Q12852). Briefly: Inhibition of human DLK assessed as residual activity at 1 uM using MBP as substrate by [gamma-33P]-ATP assay relative to control.
The target of test [5] is CDK18/Cyclin Y (Homo sapiens) (UniProt Q07002+Q8ND76). Briefly: Inhibition of human CDK18/cyclin-Y assessed as residual activity at 1 uM using RB protein as substrate by [gamma-33P]-ATP assay relative to control. In kind it is protein-complex assay.
In test [6] the target is Ephrin type-B receptor 3 (Homo sapiens) (UniProt P54753). The test is described as follows: Inhibition of human EPHB3 assessed as residual activity at 1 uM using poly[Glu:Tyr] (4:1) as substrate by [gamma-33P]-ATP assay relative to control.
The target in test [7] is Serine/threonine-protein kinase ULK3 (Homo sapiens) (UniProt Q6PHR2). The test is described as follows: Inhibition of human ULK3 assessed as residual activity at 1 uM using MBP as substrate by [gamma-33P]-ATP assay relative to control.
For test [8], the target named is Tyrosine-protein kinase Lck (Homo sapiens) (UniProt P06239). The test is described as follows: Inhibition of human LCK assessed as residual activity at 1 uM using poly[Glu:Tyr] (4:1) as substrate by [gamma-33P]-ATP assay relative to control.
The target in test [9] is Proto-oncogene tyrosine-protein kinase ROS (Homo sapiens) (UniProt P08922). The test is described as follows: Inhibition of human ROS assessed as residual activity at 1 uM using KKKSPGEYVNIEFG as substrate by [gamma-33P]-ATP assay relative to control.
Test [10] addresses Serine/threonine-protein kinase Nek3 (Homo sapiens) (UniProt P51956). Briefly: Inhibition of human NEK3 assessed as residual activity at 1 uM using MBP as substrate by [gamma-33P]-ATP assay relative to control.
For test [11], the target named is Tyrosine-protein kinase JAK1 (Homo sapiens) (UniProt P23458). Briefly: Inhibition of human JAK1 assessed as residual activity at 1 uM using poly[Glu:Tyr] (4:1) as substrate by [gamma-33P]-ATP assay relative to control.
For test [12], the target named is Serine/threonine-protein kinase Nek2 (Homo sapiens) (UniProt P51955). Briefly: Inhibition of human NEK2 assessed as residual activity at 1 uM using MBP as substrate by [gamma-33P]-ATP assay relative to control.
Test [13] addresses Tyrosine-protein kinase receptor UFO (Homo sapiens) (UniProt P30530). Briefly: Inhibition of human AXL assessed as residual activity at 1 uM using EAIYAAPFAKKK as substrate by [gamma-33P]-ATP assay relative to control.
In test [14] the target is Citron Rho-interacting kinase (Homo sapiens) (UniProt O14578). The test is described as follows: Inhibition of human STK21 assessed as residual activity at 1 uM using MBP as substrate by [gamma-33P]-ATP assay relative to control.
Test [15] concerns the target Serine/threonine-protein kinase TAO3 (Homo sapiens) (UniProt Q9H2K8). The test is described as follows: Inhibition of human TAOK3 assessed as residual activity at 1 uM using MBP as substrate by [gamma-33P]-ATP assay relative to control.
For test [16], the target named is Serine/threonine-protein kinase WNK3 (Homo sapiens, UniProt Q9BYP7). The test is described as follows: Inhibition of human WNK3 assessed as residual activity at 1 uM using MBP as substrate by [gamma-33P]-ATP assay relative to control.
In test [17] the target is Dual specificity tyrosine-phosphorylation-regulated kinase 1A (Homo sapiens) (UniProt Q13627). The test is described as follows: Inhibition of human DYRK1A assessed as residual activity at 1 uM using RRRFRPASPLRGPPK as substrate by [gamma-33P]-ATP assay relative to control.
For test [18], the target named is Serine/threonine-protein kinase tousled-like 2 (Homo sapiens) (UniProt Q86UE8). The test is described as follows: Inhibition of human TLK2 assessed as residual activity at 1 uM using casein as substrate by [gamma-33P]-ATP assay relative to control.
For test [19], the target named is Serine/threonine-protein kinase Sgk1 (Homo sapiens) (UniProt O00141). The test is described as follows: Inhibition of human SGK1 assessed as residual activity at 1 uM using KGSGSGRPRTSSFAEG as substrate by [gamma-33P]-ATP assay relative to control.
The target in test [20] is Phosphorylase b kinase gamma catalytic chain, liver/testis isoform (Homo sapiens) (UniProt P15735). The test is described as follows: Inhibition of human PHKgamma2 assessed as residual activity at 1 uM using MBP as substrate by [gamma-33P]-ATP assay relative to control.
Test [21] has as its target Receptor-interacting serine/threonine-protein kinase 2 (Homo sapiens) (UniProt O43353). The test is described as follows: Inhibition of human RIPK2 assessed as residual activity at 1 uM using MBP as substrate by [gamma-33P]-ATP assay relative to control.
Test [22] concerns the target Mitogen-activated protein kinase 8 (Homo sapiens) (UniProt P45983). The test is described as follows: Inhibition of human JNK1 assessed as residual activity at 1 uM using ATF2 as substrate by [gamma-33P]-ATP assay relative to control.
The target of test [23] is Ephrin type-A receptor 6 (Homo sapiens) (UniProt Q9UF33). The test is described as follows: Inhibition of human EPHA6 assessed as residual activity at 1 uM using poly[Glu:Tyr] (4:1) as substrate by [gamma-33P]-ATP assay relative to control.
The target in test [24] is Serine/threonine-protein kinase/endoribonuclease IRE1 (Homo sapiens) (UniProt O75460). The test is described as follows: Inhibition of human ERN1 assessed as residual activity at 1 uM using MBP as substrate by [gamma-33P]-ATP assay relative to control.
For test [25], the target named is Serine/threonine-protein kinase tousled-like 1 (Homo sapiens) (UniProt Q9UKI8). The test is described as follows: Inhibition of human TLK1 assessed as residual activity at 1 uM using Histone H3 as substrate by [gamma-33P]-ATP assay relative to control.
Test [26] has as its target PAS domain-containing serine/threonine-protein kinase (Homo sapiens) (UniProt Q96RG2). Briefly: Inhibition of human PASK assessed as residual activity at 1 uM using KKLNRTLSFAEPG as substrate by [gamma-33P]-ATP assay relative to control.
The target of test [27] is High affinity nerve growth factor receptor (Homo sapiens) (UniProt P04629). Briefly: Inhibition of human TRKA assessed as residual activity at 1 uM using poly[Glu:Tyr] (4:1) as substrate by [gamma-33P]-ATP assay relative to control.

The structures appear in SMILES notation.

Sequence of Ephrin type-B receptor 3 (Homo sapiens) (P54753 whole entry): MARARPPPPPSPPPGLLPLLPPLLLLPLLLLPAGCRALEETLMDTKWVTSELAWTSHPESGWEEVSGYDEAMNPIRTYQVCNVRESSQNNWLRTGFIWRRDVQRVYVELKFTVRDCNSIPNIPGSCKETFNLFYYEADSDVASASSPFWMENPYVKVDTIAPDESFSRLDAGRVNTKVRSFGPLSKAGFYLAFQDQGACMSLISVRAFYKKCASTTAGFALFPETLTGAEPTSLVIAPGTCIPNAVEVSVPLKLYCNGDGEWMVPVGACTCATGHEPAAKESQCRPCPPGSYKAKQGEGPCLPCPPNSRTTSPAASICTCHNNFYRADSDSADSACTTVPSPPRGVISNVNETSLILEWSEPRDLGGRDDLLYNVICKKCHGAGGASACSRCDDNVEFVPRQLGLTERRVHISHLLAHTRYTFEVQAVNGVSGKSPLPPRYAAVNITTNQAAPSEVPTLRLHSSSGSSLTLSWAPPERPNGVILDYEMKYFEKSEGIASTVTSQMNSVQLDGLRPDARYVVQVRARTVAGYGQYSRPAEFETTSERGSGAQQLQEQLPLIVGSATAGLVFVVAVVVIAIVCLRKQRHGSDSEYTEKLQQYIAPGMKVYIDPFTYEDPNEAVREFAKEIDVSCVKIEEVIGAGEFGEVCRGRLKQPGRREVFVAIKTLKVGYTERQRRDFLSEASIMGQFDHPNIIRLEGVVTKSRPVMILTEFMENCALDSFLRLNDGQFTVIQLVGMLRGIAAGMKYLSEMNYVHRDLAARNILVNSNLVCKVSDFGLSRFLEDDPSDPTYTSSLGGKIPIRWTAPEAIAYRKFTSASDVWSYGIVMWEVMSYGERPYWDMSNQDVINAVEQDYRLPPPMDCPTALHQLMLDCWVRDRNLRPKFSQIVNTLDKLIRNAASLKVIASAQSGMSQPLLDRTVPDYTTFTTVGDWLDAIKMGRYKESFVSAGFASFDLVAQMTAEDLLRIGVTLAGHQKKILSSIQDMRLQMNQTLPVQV
Sequence of Serine/threonine-protein kinase Nek3 (Homo sapiens) (P51956 whole entry): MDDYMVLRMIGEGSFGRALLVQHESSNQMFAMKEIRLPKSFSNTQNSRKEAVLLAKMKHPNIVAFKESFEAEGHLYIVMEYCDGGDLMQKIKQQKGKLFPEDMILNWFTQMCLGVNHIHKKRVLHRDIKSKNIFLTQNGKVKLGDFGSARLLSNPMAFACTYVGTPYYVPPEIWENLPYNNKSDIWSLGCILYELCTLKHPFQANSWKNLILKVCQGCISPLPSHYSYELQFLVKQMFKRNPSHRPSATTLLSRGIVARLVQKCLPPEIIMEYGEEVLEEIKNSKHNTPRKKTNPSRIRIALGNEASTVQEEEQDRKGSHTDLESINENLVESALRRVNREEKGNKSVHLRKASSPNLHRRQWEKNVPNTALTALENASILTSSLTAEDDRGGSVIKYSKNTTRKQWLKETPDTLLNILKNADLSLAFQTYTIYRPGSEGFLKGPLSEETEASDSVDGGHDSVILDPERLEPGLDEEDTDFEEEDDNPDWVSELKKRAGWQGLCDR
Sequence of CDC7/DBF4 (Cell division cycle 7-related protein kinase/Activator of S phase kinase) (Homo sapiens) (O00311 whole entry, looked up): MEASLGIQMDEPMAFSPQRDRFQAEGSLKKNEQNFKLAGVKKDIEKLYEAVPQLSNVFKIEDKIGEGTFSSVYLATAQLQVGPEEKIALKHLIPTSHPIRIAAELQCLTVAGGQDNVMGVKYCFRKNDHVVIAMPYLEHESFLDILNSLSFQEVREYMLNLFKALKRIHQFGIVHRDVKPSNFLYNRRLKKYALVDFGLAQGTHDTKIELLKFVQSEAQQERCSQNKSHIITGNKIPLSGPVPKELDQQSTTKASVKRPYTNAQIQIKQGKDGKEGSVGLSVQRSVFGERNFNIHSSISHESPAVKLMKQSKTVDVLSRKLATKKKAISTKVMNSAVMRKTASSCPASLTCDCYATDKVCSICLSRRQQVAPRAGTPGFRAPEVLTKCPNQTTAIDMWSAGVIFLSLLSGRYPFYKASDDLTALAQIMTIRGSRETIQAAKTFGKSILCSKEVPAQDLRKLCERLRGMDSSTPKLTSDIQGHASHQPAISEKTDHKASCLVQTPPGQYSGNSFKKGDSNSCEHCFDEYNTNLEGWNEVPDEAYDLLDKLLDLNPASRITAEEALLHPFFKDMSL
Sequence of CDC7/DBF4 (Cell division cycle 7-related protein kinase/Activator of S phase kinase) (Homo sapiens) (Q9UBU7 whole entry, looked up): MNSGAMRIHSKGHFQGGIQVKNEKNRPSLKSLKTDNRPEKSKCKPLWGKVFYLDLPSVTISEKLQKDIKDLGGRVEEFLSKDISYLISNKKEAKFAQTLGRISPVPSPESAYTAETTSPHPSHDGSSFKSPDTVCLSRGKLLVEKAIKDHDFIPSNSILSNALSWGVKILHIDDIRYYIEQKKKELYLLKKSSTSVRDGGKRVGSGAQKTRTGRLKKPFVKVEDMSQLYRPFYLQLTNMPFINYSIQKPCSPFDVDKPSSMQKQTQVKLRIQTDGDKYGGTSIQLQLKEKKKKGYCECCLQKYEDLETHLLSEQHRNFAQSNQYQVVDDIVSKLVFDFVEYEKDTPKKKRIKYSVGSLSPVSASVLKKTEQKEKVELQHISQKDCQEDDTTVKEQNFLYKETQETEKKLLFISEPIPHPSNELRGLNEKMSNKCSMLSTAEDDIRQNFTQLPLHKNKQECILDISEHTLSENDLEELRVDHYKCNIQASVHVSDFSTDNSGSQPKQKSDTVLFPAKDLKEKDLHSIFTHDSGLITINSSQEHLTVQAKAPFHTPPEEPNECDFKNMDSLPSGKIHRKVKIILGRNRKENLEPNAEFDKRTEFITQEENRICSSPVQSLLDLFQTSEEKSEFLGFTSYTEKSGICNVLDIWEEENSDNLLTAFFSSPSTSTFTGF
Sequence of Tyrosine-protein kinase JAK1 (Homo sapiens) (P23458 whole entry): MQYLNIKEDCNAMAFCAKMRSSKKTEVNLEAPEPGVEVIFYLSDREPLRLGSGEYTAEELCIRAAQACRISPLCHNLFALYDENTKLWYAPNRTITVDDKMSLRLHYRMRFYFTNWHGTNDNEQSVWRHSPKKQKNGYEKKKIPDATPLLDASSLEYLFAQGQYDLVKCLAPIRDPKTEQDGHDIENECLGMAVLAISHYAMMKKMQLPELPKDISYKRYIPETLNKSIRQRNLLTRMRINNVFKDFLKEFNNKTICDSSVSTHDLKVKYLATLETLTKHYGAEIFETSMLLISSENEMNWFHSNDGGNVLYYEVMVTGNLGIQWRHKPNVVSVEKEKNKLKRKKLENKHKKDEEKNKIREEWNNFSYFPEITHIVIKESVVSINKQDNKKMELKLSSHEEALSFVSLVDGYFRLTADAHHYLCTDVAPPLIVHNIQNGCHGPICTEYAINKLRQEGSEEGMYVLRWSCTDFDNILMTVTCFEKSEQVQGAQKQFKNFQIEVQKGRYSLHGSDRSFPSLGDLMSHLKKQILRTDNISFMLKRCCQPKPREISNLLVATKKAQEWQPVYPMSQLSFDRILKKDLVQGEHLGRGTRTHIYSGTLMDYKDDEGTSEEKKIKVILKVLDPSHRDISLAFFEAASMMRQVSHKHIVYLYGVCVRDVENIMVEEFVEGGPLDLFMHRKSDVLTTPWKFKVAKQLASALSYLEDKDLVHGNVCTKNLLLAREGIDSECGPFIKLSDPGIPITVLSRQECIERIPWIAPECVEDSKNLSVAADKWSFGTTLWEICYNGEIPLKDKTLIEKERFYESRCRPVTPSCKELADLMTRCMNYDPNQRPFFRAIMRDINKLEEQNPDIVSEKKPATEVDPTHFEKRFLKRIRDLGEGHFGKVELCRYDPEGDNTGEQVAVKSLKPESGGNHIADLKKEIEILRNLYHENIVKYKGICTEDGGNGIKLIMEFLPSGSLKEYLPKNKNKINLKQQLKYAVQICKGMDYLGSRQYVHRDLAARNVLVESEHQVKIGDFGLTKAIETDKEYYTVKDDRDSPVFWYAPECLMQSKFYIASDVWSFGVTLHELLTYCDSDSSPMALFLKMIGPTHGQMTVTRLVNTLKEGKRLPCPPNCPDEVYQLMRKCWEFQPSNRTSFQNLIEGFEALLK
Sequence of Serine/threonine-protein kinase TAO3 (Homo sapiens) (Q9H2K8 whole entry): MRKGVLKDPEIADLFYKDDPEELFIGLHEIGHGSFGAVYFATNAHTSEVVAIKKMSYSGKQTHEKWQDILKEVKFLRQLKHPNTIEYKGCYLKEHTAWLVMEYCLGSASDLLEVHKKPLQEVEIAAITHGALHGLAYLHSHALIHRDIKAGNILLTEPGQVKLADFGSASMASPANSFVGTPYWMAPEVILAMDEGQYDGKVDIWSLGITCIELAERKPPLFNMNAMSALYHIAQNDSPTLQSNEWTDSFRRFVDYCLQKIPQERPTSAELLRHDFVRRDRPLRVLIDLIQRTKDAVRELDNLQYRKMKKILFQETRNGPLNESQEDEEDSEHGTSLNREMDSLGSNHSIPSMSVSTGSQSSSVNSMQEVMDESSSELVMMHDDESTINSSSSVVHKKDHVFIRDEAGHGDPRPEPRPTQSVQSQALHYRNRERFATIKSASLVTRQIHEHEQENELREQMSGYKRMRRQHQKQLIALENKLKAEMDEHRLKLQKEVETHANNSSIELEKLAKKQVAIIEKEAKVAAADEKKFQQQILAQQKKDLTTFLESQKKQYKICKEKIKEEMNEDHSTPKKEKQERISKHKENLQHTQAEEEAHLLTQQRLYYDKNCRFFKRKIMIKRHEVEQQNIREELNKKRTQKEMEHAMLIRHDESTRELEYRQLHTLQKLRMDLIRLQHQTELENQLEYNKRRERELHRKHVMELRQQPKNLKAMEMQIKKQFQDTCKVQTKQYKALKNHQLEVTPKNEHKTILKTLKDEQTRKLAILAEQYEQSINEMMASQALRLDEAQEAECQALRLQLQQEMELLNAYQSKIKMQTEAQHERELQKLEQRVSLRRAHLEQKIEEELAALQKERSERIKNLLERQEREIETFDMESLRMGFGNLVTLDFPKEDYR

Regarding `C(=C\c1ccccc1)/C[N+]12CN3CN(CN(C3)C1)C2`, the Activity is 93.6 to 94.3% in test [1]; 113 to 122% in test [2]; 94 to 94.4% in test [3]; 88.4 to 93.3% in [4]; 92.5 to 93.7% in [5]; 94 to 96% in [6]. Moreover, the Activity is 90.5 to 93.8% in [7]; 94.2 to 95.5% in test [8]; 94.4 to 94.8% in test [9]; 88.4 to 92.3% in [10]; 92.4 to 92.6% in [11]; 106% in test [12]. Further, the Activity is 94.8 to 94.9% in test [13]; 92.4 to 95.5% in [14]; 92.8 to 93.1% in test [15]; 92.3 to 93% in [16]; 95.8 to 96.4% in test [17]; 87.9 to 91.1% in test [18]. Besides, the Activity in test [19] lay within 93.4 to 94.1%.

With `ClC/C=C/C[N+]12CN3CN(CN(C3)C1)C2`, the Activity was in the range of 92.5 to 94.9% in test [1]; 93.8 to 95.8% in [3]; 92.2 to 94.9% in test [20]; 71.9 to 74.8% in [4]; 93 to 93.5% in test [6]; 95.4 to 96.7% in test [21]. Further, the Activity in test [22] was 96 to 96.5%; in [23], 93.1 to 94%; in test [9], 94 to 95.2%; in test [10], 86.9 to 92.5%; in test [24] it was 92.5 to 94.8%; in test [25], 93.1 to 93.4%. Moreover, the Activity in [11] was 92.7 to 94.5%; in [13], 95.7 to 96.5%; in test [15] it was 94.1 to 94.7%; in test [16] it was 90.2 to 91.3%; in test [26] it was 94.3 to 95.1%; in test [17] it was 95.7 to 95.8%. The values for the Activity in test [18] and in [27] were 91.2 to 91.8% and 94 to 94.8%, respectively.

Values taken from ChEMBL document CHEMBL4325871 (Eur J Med Chem, 2019).
